According to the CheMixHub viscosity set:

Test: xn = mol fraction of the nth substance listed

CCCCCCCC + CCCCCCCCCC
viscosity [mPa·s]
Settings	297.95 K	298.15 K	313.05 K
101 kPa, x1 = 0.1384	0.8136	–	0.6803
101 kPa, x1 = 0.2144	0.7783	–	0.6439
101 kPa, x1 = 0.3015	0.7465	–	0.6261
101 kPa, x1 = 0.3894	0.6993	–	0.5975
101 kPa, x1 = 0.452	0.6767	–	0.5817
101 kPa, x1 = 0.601	0.6312	–	0.5417
101 kPa, x1 = 0.6988	0.5898	–	0.5129
101 kPa, x1 = 0.8208	0.5543	–	0.4761
101 kPa, x1 = 0.8858	0.5327	–	0.4643
101.33 kPa, x1 = 0.1059	–	0.8166	–
101.33 kPa, x1 = 0.2142	–	0.7747	–
101.33 kPa, x1 = 0.3038	–	0.7382	–
101.33 kPa, x1 = 0.4052	–	0.6937	–
101.33 kPa, x1 = 0.5057	–	0.6694	–
101.33 kPa, x1 = 0.6061	–	0.6305	–
101.33 kPa, x1 = 0.7032	–	0.6018	–
101.33 kPa, x1 = 0.8002	–	0.5722	–
101.33 kPa, x1 = 0.9058	–	0.5366	–

c1ccccc1 + CCCCCCCCCC
Settings	viscosity [mPa·s]
298 K, 101 kPa, x1 = 0.5	0.6712
298.15 K, 101.33 kPa, x2 = 0.03584	0.6003
298.15 K, 101.33 kPa, x2 = 0.1004	0.5986
298.15 K, 101.33 kPa, x2 = 0.2013	0.6012
298.15 K, 101.33 kPa, x2 = 0.2902	0.613
298.15 K, 101.33 kPa, x2 = 0.3988	0.6372
298.15 K, 101.33 kPa, x2 = 0.5	0.6648
298.15 K, 101.33 kPa, x2 = 0.5943	0.6949
298.15 K, 101.33 kPa, x2 = 0.7021	0.7313
298.15 K, 101.33 kPa, x2 = 0.8353	0.7784
298.15 K, 101.33 kPa, x2 = 0.9165	0.8085
318 K, 101 kPa, x1 = 0.5	0.5262

CC12CC3CC(C)(C1)CC(C)(C3)C2 + CCCCCCCCCCC
viscosity [mPa·s], 100 kPa
Settings	x1 = 0.1004	x1 = 0.1998	x1 = 0.3004	x1 = 0.4006	x1 = 0.4992	x1 = 0.6045	x1 = 0.7008	x1 = 0.8138	x1 = 0.9014
293.15 K	1.267	1.341	1.419	1.514	1.628	1.772	1.935	2.161	2.369
298.15 K	1.16	1.227	1.294	1.374	1.47	1.595	1.737	1.939	2.134
303.15 K	1.071	1.121	1.187	1.264	1.351	1.463	1.589	1.762	1.926
308.15 K	0.987	1.038	1.095	1.165	1.246	1.348	1.46	1.612	1.76
313.15 K	0.92	0.965	1.019	1.083	1.152	1.241	1.34	1.475	1.605
318.15 K	0.86	0.9	0.948	1.006	1.073	1.155	1.245	1.369	1.48
323.15 K	0.802	0.843	0.889	0.943	1.001	1.073	1.153	1.261	1.362

CCCCCCCCCCCCCC + CCCCCCCCCCCCCCCC
293.15 K, 101.33 kPa
Settings	viscosity [mPa·s]
x1 = 0.276	3.067
x1 = 0.533	2.789
x1 = 0.773	2.529

CC(=O)OC1CCCCC1 + CCCCCCCCCCO
viscosity [mPa·s], 101 kPa
Settings	300 K	310 K	320 K
x2 = 0.0746	2.01	1.65	1.38
x2 = 0.1275	2.11	1.72	1.43
x2 = 0.184	2.26	1.82	1.51
x2 = 0.2015	2.3	1.86	1.55
x2 = 0.2425	2.42	1.95	1.6
x2 = 0.2741	2.54	2.03	1.66
x2 = 0.4169	3.15	2.47	1.98
x2 = 0.4886	3.61	2.81	2.23
x2 = 0.6055	4.41	3.35	2.62
x2 = 0.6993	5.27	3.95	3.04
x2 = 0.8435	7.56	5.49	4.1
x2 = 0.8806	8.17	5.85	4.37

CCCCCCCCCCCCCC + CCCCCCCCCCO
100 kPa, x1 = 0.3338
Settings	viscosity [mPa·s]
298.2 K	5.36
308.2 K	3.89
318.2 K	2.92

CC12CC3CC(C)(C1)CC(C)(C3)C2 + CCCCCCCCO
viscosity [mPa·s], 100 kPa
Settings	x1 = 0.1004	x1 = 0.2017	x1 = 0.3008	x1 = 0.3998	x1 = 0.5015	x1 = 0.5993	x1 = 0.7	x1 = 0.7997	x1 = 0.9005
293.15 K	7.78	6.71	5.79	5	4.3	3.75	3.3	2.98	2.76
298.15 K	6.54	5.65	4.9	4.25	3.71	3.28	2.93	2.66	2.47
303.15 K	5.53	4.81	4.2	3.68	3.24	2.88	2.59	2.37	2.21
308.15 K	4.72	4.14	3.64	3.22	2.85	2.55	2.31	2.13	2
313.15 K	4.03	3.57	3.18	2.83	2.53	2.28	2.08	1.93	1.82
318.15 K	3.49	3.12	2.79	2.5	2.24	2.03	1.86	1.73	1.65
323.15 K	3.03	2.72	2.45	2.22	2	1.83	1.69	1.58	1.51

ClC(Cl)=C(Cl)Cl + CCCCCCCO
303.15 K, 101 kPa
Settings	viscosity [mPa·s]
x2 = 0.132	1.08
x2 = 0.2375	1.267
x2 = 0.3539	1.511
x2 = 0.4634	1.807
x2 = 0.5262	2.016
x2 = 0.5927	2.259
x2 = 0.6534	2.548
x2 = 0.7637	3.149
x2 = 0.8512	3.725
x2 = 0.9246	4.255
